Paper PMC10612255, “Discovery of novel 2,3,4,5-tetrahydrospiro[benzo[c]azepine-1,1’-cyclohexan]-5-ol derivatives as PARP-1 inhibitors” (BMC Chemistry, 2023)
Several values for one entry are separate records, joined by “and”; a condition that tells them apart may be missing. Equal values may be shown once.

Columns and labels:
[1] = target: T1, PARP-2 (Homo sapiens, UniProt Q9UGN5); assay: PARP-2 enzyme inhibition, colorimetric 96-well PARP assay kit; type: biochemical; settings: in vitro enzyme, Mean ± SD
T1 construct: purchased BPS Bioscience, USA 80,581
T1 sequence (Q9UGN5 whole entry): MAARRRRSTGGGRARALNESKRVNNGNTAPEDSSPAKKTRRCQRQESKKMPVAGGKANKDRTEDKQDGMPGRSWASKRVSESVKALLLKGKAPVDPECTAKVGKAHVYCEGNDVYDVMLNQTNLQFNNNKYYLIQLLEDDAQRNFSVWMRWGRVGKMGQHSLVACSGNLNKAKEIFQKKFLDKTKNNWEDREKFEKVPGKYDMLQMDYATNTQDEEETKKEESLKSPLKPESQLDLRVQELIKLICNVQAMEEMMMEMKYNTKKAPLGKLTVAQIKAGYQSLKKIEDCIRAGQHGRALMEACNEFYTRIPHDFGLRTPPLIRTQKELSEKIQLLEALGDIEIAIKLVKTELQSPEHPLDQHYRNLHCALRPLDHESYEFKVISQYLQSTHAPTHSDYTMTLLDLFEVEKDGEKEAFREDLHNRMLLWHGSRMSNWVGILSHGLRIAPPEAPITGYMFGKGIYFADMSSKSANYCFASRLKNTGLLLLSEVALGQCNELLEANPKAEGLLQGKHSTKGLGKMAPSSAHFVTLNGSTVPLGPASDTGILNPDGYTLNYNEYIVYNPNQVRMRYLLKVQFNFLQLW
Description: (§4) The PARP-1 and PARP-2 inhibition assays were performed by the colorimetric 96-well PARP assay kits provided by BPS Bioscience, USA.

[2] = tested on: HPAEpiC; assay: Selectivity index (SI) versus HPAEpiC normal cells; type: cell-based; settings: SI = CC50/IC50; Human normal alveolar epithelial cells; means ± SD
[3] = tested on: Cleaved-Caspase 3 and Caspase 3; assay: Western blot of Caspase 3 and Cleaved-Caspase 3 in A549 cells; type: cell-based, human
Description: Meanwhile, we also detected the expression of Cleaved-Caspase 3 and Caspase 3 after different treatment concentrations to explore the mechanism of compound 11b inducing cell apoptosis.
(§1) The cells were plated in 6-well plates and incubated with different concentrations of compound 11b for a specified time. The cells were then collected, and tested using a standard western blot as described before.

[4] = tested on: OVCAR-3; assay: MTT assay, anti-proliferative effect on OVCAR-3 cells; type: cell-based, human; settings: Homo sapiens, OVCAR-3, 72 h, read-out: IC50 OVCAR-3
Description: (§2) A549, OVCAR-3, HCT-116, and MCF-7 were purchased from American type culture collection (ATCC, USA). […] And all cell lines used in the experiment were tested for mycoplasma contamination every two weeks.
(§3) A549, OVCAR-3, HCT-116, and MCF-7 cells were seeded in 96-well plates, and then treated with target compounds for 72 h. Then, 20 µL MTT (5 mg/mL, in PBS) was added into each well, and dissolved in 150 µL DMSO after incubation for 4 h. Finally, the absorbance was measured with microplate reader (490 nm).

[5] = tested on: PAR; assay: Western blot of PAR in A549 cells; type: cell-based, human; settings: best effect at 4.0 µM, P < 0.001
Description: PARylation is a critical post-translational modification in which ADP-ribose units are added to a wide array of target proteins by PARP-1 [33–35]. PAR is the active product of PARP-1, and the biosynthesis of PAR will be reduced while PARP-1 is inhibited. Here, we used the western blot to evaluate PAR levels and PARP-1 expression.
as §1

[6] = tested on: A549; assay: MTT assay, anti-proliferative effect on A549 cells; type: cell-based, human; settings: Homo sapiens, A549, 72 h, read-out: IC50 A549
Description: as §2, §3

[7] = target: T2, PARP-1 (Homo sapiens, UniProt P09874); assay: PARP-1 enzyme inhibition, colorimetric 96-well PARP assay kit; type: biochemical; settings: in vitro enzyme, Mean ± SD
T2 construct: purchased BPS Bioscience, USA 80,580
T2 sequence (P09874 whole entry): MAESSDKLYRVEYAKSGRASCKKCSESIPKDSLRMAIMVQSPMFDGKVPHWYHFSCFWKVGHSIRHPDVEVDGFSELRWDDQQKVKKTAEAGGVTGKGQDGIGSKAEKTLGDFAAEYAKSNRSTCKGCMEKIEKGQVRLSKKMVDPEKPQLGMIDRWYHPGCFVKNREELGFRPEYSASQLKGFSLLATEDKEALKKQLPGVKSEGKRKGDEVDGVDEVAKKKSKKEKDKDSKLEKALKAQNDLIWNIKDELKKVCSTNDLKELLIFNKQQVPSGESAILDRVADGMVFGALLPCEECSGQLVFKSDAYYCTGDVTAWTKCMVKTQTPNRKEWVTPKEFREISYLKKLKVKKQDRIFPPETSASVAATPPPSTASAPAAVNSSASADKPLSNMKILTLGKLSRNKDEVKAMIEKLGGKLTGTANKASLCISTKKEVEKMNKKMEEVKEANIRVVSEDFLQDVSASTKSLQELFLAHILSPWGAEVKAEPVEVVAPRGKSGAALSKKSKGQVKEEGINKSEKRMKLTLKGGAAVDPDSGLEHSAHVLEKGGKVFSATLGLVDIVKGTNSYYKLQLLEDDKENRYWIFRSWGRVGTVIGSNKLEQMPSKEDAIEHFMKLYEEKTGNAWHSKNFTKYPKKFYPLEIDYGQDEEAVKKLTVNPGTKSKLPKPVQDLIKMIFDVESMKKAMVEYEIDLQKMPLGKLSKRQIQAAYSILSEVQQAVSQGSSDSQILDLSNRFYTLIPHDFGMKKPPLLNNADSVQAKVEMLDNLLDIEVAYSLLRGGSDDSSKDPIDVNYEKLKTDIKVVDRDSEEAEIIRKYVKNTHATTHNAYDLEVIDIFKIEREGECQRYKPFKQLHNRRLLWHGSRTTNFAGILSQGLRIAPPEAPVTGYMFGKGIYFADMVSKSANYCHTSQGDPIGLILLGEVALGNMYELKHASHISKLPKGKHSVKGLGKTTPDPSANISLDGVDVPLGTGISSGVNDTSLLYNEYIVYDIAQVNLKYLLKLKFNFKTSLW
Description: as §4

[8] = tested on: HIEC; assay: Selectivity index (SI) versus HIEC normal cells; type: cell-based; settings: SI = CC50/IC50; Human normal intestinal epithelial cells; means ± SD
[9] = tested on: A549 cells; assay: Annexin-V/PI apoptosis assay by flow cytometry; type: cell-based, human; settings: 48 h, P < 0.001
Description: PARP-1 inhibitors have been reported to induce further apoptosis of cancer cells, which was also confirmed by our previous studies. An annexin-V/PI binding assay was conducted in A549 cells to evaluate the capacity of compound 11b to induce apoptosis in cancer cells. […] (Fig. 4).
A549 cells were cultured in 6-well plates (3.0 × 10^5/well), and treated with DMSO (1%) or compound 11b for 48 h. The cells were then collected, washed with PBS, and stained with FITC-Annexin-V and PI (Promega Corporation, USA). Finally, the apoptosis of A549 cells was detected by flow cytometry (Becton Dickinson and Company, USA; FACS Calibur).

[10] = tested on: IOSE80; assay: Selectivity index (SI) versus IOSE80 normal cells; type: cell-based; settings: SI = CC50/IC50; Human normal ovarian epithelial cells; means ± SD
[11] = tested on: HCT-116; assay: MTT assay, anti-proliferative effect on HCT-116 cells; type: cell-based, human; settings: Homo sapiens, HCT-116, 72 h, read-out: IC50 HCT-116
Description: as §2, §3

[12] = tested on: HTB-125; assay: Selectivity index (SI) versus HTB-125 normal cells; type: cell-based; settings: SI = CC50/IC50; Human normal breast cell; means ± SD
[13] = tested on: MCF-7; assay: MTT assay, anti-proliferative effect on MCF-7 cells; type: cell-based, human; settings: Homo sapiens, MCF7, 72 h, read-out: IC50 MCF-7
Description: as §2, §3

OC1CCN(Cc2cn(-c3ccccc3F)nn2)C2(CCCCC2)c2ccccc21 (centres unmarked) [Compound 11b, 2-((1-(2-fluorophenyl)-1 H-1,2,3-triazol-4-yl)methyl)-2,3,4,5-tetrahydrospiro[benzo[c]azepine-1,1’-cyclohexan]-5-ol]
IC50 [1]: 32.6 ± 1.97 nM
SI HPAEpiC [2]: 15.38 and 15.38 ± 0.97
expression of Caspase 3 [3]: decreased with the increase of compound 11b concentration
ratio of Cleaved-Caspase 3/Caspase 3 [3]: best at 4.0 µM
IC50 [4]: 4020 ± 240 nM
biosynthesis of PAR [5]: reduce the biosynthesis of PAR
IC50 [6]: 1950 ± 330 nM
IC50 [7]: 19.2 ± 1.63 nM
SI HIEC [8]: 6.12 ± 1.76
induction of apoptosis in A549 cells [9]: induce apoptosis in a dose-dependent manner
SI IOSE80 [10]: 10.57 ± 2.01
IC50 [11]: 7450 ± 1980 nM
SI HTB-125 [12]: 7.06 ± 1.32
IC50 [13]: 9210 ± 2540 nM
